Assay results: patent US8226943B2, “Antibodies to notch receptors” (OncoMed Pharmaceuticals, Inc., priority 2008, dated 2012)

Legend:
T3 breast tumor cells = assay: T3 breast tumor xenograft growth; assay type: in vivo, NOD/SCID mice
Description: In certain embodiments, NOD/SCID mice injected with 50,000 PE13 or T3 breast tumor cells were treated with anti-Notch2/3 antibody 59R1 or control antibody 1B7.11 two days following cell injections. Antibodies were dosed at 10 mg/kg twice week.
In a further experiment, anti-Notch2/3 antibodies were tested for an effect on breast tumor growth. NOD/SCID mice were injected with 50,000 PE13 or T3 breast tumor cells, and tumors were allowed to grow to a size of between 65 to 200 mm^3 after which mice were randomized (n=10 per experimental group), and antibodies administration begun. Animals were treated with 15 mg/kg of either control 1B7.11 antibodies or anti-Notch2/3 59R1 antibodies twice weekly. Tumor size was measured twice weekly, and tumor volume was calculated as described (see Michieli et al., 2004).

B51 breast tumors = assay: Limiting dilution assay of cancer stem cell frequency, B51 breast tumors; assay type: in vivo, NOD-SCID mice
Source text: Limiting dilution assays (LDAs) can be used to assess the effect of a Notch-binding agent on solid tumor cancer stem cells and on the tumorigenicity of a tumor comprising the cancer stem cells. The assays can be sued to determine the frequency of cancer stem cells in tumors from animals treated with the Notch-binding agent or other agent and to compare that frequency to the frequency of cancer stem cells in tumors from control animals.
An LDA was used to assess the effect on the tumorigenicity of the B51 breast tumors that were treated with the combination of control antibody (1B711) plus paclitaxel (Taxol) or treated with the combination of 59R1 and paclitaxel, as described above in Example 7. In addition, the effect of treatment of B51 breast tumors with the control antibody alone or 59R1 alone was also determined by LDA. The doses of antibodies and paclitaxel and the schedule of dosing for the control antibody group and the 59R1 group were the same as described in Example 7, above for the other two treatment groups. After three doses of antibodies and/or paclitaxel, tumors were harvested, processed and dissociated into single cells. The human tumor cells were isolated from the xenograft tumor cells by incubation with biotinylated mouse antibodies (α-mouse CD45-biotin1:200 dilution and rat α-mouse H2 Kd-biotin1:100 dilution, BioLegend, San Diego, Calif.) on ice for 30 min, followed by addition of streptavidin-labeled magnetic beads and removal of the mouse cells with the aid of a magnet. The human cells in the suspension were harvested and counted.
A serial titration of cells (30, 90, 270, and 810 cells) from each of the four treatment groups was injected in a 1:1 (v/v) mixture of FACS buffer and Matrigel into a new set of NOD-SCID mice (n=10/group). Tumors were allowed to grow for 72 days. The percentage of mice with detectable tumors was determined in all groups. The cancer stem cell frequency was then calculated using L-Calc™ software (StemCell Technologies Inc.; downloadable from www.stemcell.com/search/default.asp).

[1] = system: hJAG1-induced Notch2 signaling; assay: Luciferase reporter assay, hJAG1-induced Notch2 signaling in Hela cells; assay type: cell-based, human; conditions: 40 μg/ml
Description: Luciferase reporter assays were used to assay the 59R1 antibody for its ability to block hDLL4-, hJAG1-, and hJAG2-induced Notch2 signaling.
Hela cells that stably overexpress human Notch2 were transiently transfected with firefly luciferase with a synthetic 8×CBS promoter, pSPORT6 MAML-1, and Renilla luciferase-CMV as a transfection control. Cells were incubated with either 200 ng of immobilized hJAG1 (R&D systems) or hJAG2 (R&D systems) for 16 hours and then assayed using Dual-Glo (Promega) according to the manufacturer's instructions. 59R1 IgG2 antibody was at a concentration of 40 μg/ml. The gamma secretase inhibitor (GSI) dibenzazepine (DBZ) was used as a control at 1 μM.

[2] = biological target: T1, human Notch2 EGF deletion and point mutants (Homo sapiens, UniProt Q04721, A388S/H385N/L389N); assay: FACS epitope mapping with full-length hNotch2 deletion and point mutants; assay type: binding; conditions: FACS on point mutants
T1 construct: several point mutants were created within full-length Notch2; expressed in transfected cells; host or cells: HEK-293, transient, co-transfected with GFP
Description: (§1) Point mutations were made within EGF10 of Notch2 fusion proteins and binding of 59R1 to each EGF10 mutant was determined by FACS analysis. HEK-293 cells were transiently transfected with the indicated Notch expression plasmid and GFP as a transfection control. GFP positive cells indicated expression of the transgene. The 59R1 Fab antibody was added to the cells at 10 μg/ml and detected by PE-conjugated goat anti-human (Jackson Immunochemicals).
(§2) FACS analysis of HEK-293 cells transiently transfected with the indicated Notch expression plasmid and GFP as a transfection control. GFP positive cells indicate expression of the transgene. Anti-Notch2 (59M70) was added at 20 μg/ml and detected by PE-conjugated goat anti-mouse (Caltag, #3004-4). 59R1 (IgG2) was added to the cells at 2 μg/ml and detected by PE-conjugated goat anti-human Fc gamma specific (Jackson Immunochemicals). Ligand binding was determined by incubation of the cells with human DLL4 extracellular domain (ECD) fused to rabbit IgG constant region at 5 μg/ml and detected by PE-conjugated donkey anti-rabbit.
(§3) A comparison analysis of the EGF 10 regions of human Notch1, Notch2, and Notch4 and the EGF 9 region of human Notch3 (the equivalent of EGF 10 in the other Notch receptors) was performed to determine likely binding sites for 59R1 (FIG. 14A). […] Binding to the mutants was determined by FACS analysis (FIGS. 14B and 14C). […]

[3] = biological target: T2, human Notch2 EGF deletion and point mutants (Homo sapiens, UniProt Q04721, DEL375-412); assay: as above; assay type: binding; conditions: HEK-293 transiently transfected
T2 construct: several point mutants were created within full-length Notch2; expressed in transfected cells; host or cells: HEK-293, transient, co-transfected with GFP
Description: as §1, §2, §3

human Notch2 = human Notch2 (Homo sapiens, UniProt Q04721); assay: DLL4-Fc induced receptor activation in transfected PC3 cells, human Notch2; assay type: cell-based; design: expressed in transfected cells; conditions: immobilized DLL4-Fc
Description: 59R5 was determined to have similar activity in blocking Notch2 and Notch3 signaling as 59R1. Receptor activation was determined in luciferase-based assays. PC3 tumor cells were transiently transfected with a human or mouse Notch receptor (human Notch2, murine Notch2, human Notch3, or murine Notch3) and […] inducible reporter construct. Transfected cells were incubated with different concentrations of 59R1 or 59R5 antibody in the presence of passively immobilized DLL4-Fc protein. Notch receptor activation was determined by measuring luciferase activity.

[4] = B51, combination of 59R1 and paclitaxel

T1 sequence (Q04721 26-2471 H385N/A388S/L389N): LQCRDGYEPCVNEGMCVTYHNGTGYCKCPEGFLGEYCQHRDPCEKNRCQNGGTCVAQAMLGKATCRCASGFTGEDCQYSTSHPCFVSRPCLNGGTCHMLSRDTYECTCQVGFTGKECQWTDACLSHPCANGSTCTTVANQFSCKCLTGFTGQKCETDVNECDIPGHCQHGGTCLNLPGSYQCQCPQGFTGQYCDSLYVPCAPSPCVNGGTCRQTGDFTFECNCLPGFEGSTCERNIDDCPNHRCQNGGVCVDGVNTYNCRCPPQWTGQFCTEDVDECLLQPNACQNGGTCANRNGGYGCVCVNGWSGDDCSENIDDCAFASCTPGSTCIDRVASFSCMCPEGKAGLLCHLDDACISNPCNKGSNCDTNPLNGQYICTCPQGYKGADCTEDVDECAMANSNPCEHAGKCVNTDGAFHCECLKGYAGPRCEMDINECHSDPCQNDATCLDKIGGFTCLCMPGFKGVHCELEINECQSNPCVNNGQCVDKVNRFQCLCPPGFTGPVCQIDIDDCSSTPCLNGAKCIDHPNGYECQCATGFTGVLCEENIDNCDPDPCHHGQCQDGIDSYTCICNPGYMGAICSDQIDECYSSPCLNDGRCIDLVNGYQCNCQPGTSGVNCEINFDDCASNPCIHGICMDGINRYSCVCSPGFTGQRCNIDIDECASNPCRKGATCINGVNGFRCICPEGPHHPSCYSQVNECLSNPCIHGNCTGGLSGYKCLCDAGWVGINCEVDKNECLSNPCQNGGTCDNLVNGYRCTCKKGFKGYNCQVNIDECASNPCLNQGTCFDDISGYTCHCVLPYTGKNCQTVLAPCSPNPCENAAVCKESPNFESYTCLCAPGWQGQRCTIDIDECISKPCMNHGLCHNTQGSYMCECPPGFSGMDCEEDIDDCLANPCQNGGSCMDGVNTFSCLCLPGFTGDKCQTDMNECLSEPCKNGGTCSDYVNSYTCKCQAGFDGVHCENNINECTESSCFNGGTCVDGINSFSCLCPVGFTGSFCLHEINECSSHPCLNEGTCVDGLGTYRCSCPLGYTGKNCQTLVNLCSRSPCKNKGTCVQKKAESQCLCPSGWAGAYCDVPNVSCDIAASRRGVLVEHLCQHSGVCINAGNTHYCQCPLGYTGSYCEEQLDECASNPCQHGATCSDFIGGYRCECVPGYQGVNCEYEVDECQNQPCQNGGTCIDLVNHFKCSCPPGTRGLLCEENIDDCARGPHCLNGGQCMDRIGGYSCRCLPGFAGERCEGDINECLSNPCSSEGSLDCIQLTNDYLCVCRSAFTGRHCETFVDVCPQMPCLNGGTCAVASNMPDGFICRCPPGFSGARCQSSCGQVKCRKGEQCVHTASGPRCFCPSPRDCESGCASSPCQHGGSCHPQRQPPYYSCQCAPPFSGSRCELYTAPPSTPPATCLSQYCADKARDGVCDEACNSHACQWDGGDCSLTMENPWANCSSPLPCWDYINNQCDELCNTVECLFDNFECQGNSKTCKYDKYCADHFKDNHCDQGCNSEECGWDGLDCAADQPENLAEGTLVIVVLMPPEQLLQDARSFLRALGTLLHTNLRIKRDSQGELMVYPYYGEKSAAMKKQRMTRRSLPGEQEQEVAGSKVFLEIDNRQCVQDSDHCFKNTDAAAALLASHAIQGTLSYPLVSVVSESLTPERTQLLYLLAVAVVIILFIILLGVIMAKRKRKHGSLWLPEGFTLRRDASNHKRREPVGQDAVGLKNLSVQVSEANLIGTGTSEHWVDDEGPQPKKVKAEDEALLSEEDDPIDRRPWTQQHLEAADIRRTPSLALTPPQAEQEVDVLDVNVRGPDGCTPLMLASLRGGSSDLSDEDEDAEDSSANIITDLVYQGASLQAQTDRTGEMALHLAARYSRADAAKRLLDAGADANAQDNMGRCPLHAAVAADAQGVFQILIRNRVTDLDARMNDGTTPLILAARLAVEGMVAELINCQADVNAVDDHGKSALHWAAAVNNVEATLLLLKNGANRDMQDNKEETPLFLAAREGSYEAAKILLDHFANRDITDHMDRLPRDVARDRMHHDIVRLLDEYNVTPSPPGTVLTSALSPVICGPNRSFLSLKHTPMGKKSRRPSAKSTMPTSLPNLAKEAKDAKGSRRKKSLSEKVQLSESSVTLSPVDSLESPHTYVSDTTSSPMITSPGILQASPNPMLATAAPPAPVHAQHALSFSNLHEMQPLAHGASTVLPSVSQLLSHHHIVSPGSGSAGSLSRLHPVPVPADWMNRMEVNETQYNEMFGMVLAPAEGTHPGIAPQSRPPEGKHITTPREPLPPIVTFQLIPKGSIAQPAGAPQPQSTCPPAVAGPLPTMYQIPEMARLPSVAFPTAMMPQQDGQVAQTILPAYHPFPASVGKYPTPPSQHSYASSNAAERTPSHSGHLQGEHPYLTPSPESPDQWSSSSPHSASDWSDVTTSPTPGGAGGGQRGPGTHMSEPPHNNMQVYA
Chain of human Notch2 (Q04721 26-2471): as the sequence (Q04721 26-2471 H385N/A388S/L389N) above, with N360H, S363A, N364L counted along it
T2 sequence (Q04721 with tags, fused parts or gaps DEL375-412): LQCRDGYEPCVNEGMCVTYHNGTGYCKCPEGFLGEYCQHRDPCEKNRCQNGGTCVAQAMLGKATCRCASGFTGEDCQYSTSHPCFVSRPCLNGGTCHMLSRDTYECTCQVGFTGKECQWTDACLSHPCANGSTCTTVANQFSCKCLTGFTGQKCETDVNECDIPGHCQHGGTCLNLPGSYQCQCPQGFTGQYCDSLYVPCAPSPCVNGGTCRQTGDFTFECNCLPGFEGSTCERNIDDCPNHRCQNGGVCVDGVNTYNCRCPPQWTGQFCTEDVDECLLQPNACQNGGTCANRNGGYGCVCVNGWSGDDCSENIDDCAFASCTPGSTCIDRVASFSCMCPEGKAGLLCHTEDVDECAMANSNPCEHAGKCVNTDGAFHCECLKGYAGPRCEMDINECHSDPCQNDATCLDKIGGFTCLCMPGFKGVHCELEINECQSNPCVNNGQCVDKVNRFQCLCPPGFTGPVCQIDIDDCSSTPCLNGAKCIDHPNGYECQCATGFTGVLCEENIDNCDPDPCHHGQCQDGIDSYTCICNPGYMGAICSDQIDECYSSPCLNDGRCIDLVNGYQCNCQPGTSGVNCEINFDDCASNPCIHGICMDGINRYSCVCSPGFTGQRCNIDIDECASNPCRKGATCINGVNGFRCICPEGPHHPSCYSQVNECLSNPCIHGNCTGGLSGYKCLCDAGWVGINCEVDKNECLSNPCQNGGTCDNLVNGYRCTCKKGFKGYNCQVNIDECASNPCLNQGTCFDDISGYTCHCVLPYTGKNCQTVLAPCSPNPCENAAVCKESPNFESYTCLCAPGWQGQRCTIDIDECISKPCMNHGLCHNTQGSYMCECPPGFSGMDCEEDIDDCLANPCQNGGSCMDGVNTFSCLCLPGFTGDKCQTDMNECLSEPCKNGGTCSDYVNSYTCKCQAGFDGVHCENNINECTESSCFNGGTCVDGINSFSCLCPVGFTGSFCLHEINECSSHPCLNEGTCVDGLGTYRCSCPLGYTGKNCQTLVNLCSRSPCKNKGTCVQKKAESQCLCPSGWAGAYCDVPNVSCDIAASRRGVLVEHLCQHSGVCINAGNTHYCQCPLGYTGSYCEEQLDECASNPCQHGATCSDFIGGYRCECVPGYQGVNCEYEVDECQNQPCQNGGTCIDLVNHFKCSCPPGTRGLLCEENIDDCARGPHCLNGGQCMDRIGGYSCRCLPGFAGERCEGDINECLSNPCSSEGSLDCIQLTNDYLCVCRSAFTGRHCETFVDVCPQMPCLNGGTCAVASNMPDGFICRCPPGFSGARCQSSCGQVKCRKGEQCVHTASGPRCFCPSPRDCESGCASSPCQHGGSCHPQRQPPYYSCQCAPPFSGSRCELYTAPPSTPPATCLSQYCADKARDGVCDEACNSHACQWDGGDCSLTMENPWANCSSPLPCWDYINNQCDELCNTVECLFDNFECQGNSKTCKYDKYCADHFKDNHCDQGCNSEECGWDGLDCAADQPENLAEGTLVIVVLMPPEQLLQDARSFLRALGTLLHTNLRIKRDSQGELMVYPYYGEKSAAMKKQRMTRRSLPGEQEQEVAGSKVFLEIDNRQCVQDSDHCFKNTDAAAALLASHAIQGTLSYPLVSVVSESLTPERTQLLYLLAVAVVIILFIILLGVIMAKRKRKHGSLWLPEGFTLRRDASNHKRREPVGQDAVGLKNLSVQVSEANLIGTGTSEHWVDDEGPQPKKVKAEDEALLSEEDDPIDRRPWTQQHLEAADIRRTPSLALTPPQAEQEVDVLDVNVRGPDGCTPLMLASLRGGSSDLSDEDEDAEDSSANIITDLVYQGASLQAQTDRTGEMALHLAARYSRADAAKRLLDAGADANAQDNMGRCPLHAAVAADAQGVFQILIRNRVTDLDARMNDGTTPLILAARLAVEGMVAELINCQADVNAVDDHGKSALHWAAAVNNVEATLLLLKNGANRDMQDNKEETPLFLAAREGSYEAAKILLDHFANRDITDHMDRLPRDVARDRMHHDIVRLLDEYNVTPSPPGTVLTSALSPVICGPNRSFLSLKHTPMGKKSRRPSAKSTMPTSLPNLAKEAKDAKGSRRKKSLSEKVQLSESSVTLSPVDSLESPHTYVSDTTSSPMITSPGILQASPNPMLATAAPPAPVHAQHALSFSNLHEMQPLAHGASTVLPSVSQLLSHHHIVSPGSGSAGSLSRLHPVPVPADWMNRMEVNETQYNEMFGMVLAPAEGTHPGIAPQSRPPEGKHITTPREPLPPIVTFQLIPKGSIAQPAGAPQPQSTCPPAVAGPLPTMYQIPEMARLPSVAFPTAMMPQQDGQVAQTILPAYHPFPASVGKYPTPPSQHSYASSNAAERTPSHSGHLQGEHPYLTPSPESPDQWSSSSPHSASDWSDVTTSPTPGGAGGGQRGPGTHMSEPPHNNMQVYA

| Substance | T3 tumor growth compared to control (T3 breast tumor cells; 10 mg/kg twice week, started two days following cell injections) | T3 tumor growth compared to control (T3 breast tumor cells; established tumors, 15 mg/kg twice weekly) | reduction of cancer stem cell frequency relative to the control (B51 breast tumors; B51, 59R1 alone) | reduction of cancer stem cell frequency relative to treatment with 59R1 alone (B51 breast tumors; [4]) | reduction of cancer stem cell frequency relative to treatment with paclitaxel alone (B51 breast tumors; [4]) | reduction of cancer stem cell frequency relative to treatment with the control antibody (B51 breast tumors; [4]) | hJAG1-induced Notch2 reporter activity [1] | amino acids necessary for binding to hNotch 2 [2] | FACS binding to hNotch2 in the absence of EGF 10 (missing amino acids 375-412) [3] | ligand-induced activation of human Notch2 receptor signaling (human Notch2) |
| --- | --- | --- | --- | --- | --- | --- | --- | --- | --- | --- |
| 59R1: human IgG2 antibody binding Notch2 and Notch3; heavy and light chain SEQ ID NO:16 and 18; ATCC PTA-9547 | significantly reduced | significantly reduced | more than two-fold | more than two-fold | about twelve-fold | about 4.5 fold | inhibit | histidine 385, alanine 388, and leucine 389 | does not |  |
| 59R5: human antibody that specifically binds human Notch 2 and human Notch 3; heavy and light chain SEQ ID NO:49 and 18; ATCC PTA-10170 |  |  |  |  |  |  |  |  |  | blocked |
